Data: PMC6667648 (Frontiers in Microbiology, 2019)
≈ marks a conversion by molar mass, not a printed value. Where “and” joins values, the source holds several entries; their conditions need not be identical. Equal values may be shown once. Values belong to the compound of their own block, whether it stands above or below them.

Assays:
[1] = tested on: preformed C. albicans biofilm; conditions: ref Woodburn et al., under review; cited from earlier work
[2] = tested on: 6 hr MRSA ATCC 1556 biofilm; type: cell-based, Staphylococcus aureus; conditions: ATCC 1556, 6 h
[3] = tested on: mature (120 h) MRSA ATCC 1556 biofilm; type: cell-based, Staphylococcus aureus; conditions: ATCC 1556, 120 h
C. parapsilosis Y-1763 = assay: microbe, parasite or virus in culture; type: cell-based; conditions: Lodderomyces parapsilosis, Y1763, 24-h incubation, mean of 3 replicates from 2 independent experiments, read-out: Minimum Inhibitory Concentration (MIC)
Description: (§1) Strains were obtained from American Type Culture Collection (ATCC, Manassas, VA) or the clinical isolate collection at Trideum Biosciences (Frederick, MD, USA). Bioluminescence strains of P. aeruginosa 19660, transfected with the Xen5 luciferase gene, and S. aureus ATCC® 49525™ (Wright), transfected with the Xen36 luciferase gene, were obtained from Perkin Elmer (Hopkinton, MA).
(§2) A single colony was aseptically picked from an agar overlay and released in 25–30 mL of pre-warmed trypticase soy broth in a culture flask. Each culture was incubated overnight in a 37°C incubator. […] Pathogen growth was measured by absorbance at 600 nm. Four replicas were included for each test agent concentration. […]

C. parapsilosis Y-1761 = assay: microbe, parasite or virus in culture; type: cell-based; conditions: Lodderomyces parapsilosis, Y1761, 24-h incubation, mean of 3 replicates from 2 independent experiments, read-out: Minimum Inhibitory Concentration (MIC)
Description: as §1, §2

[4] = tested on: bioluminescent P. aeruginosa 19660; assay: Bioluminescence time-kill assay; type: cell-based, Pseudomonas aeruginosa; conditions: antibiotics after 30 min incubation, triplicates, two independent experiments
Description: as §1
(§3) Non-invasive real-time evaluation of viability, mammalian, and bacterial cells, was performed using bioluminescent human keratinocytes (HaCaT, AddexBio, San Diego, CA) and murine L929 fibroblast cells (ATCC, Manassas, VA). The bioluminescent variants were constructed by transfection with a luciferase gene (RediFect Red-Fluc-Puromycin, Catalog #CL596002) (Hamblin et al., [2003]). […] Each concentration was performed in triplicate. Bioluminescence imaging was performed at pre-specified times (0, 15, and 30 min and 1, 3, 5, 8, and 24 h) and compared to concurrently run vehicle-controls. The 96-well plate was positioned on the stage (12.5-cm field of view) within the in vivo Imaging System (IVIS) imaging system (Caliper Life Sciences, Inc., Hopkinton, MA, USA), with an open emission filter, binning of 4, and f-stop 1, and a 1-min exposure time. The resultant photons emitted from the live cells were quantified using Living Image® software (version 4.3, Caliper Life Sciences, Inc.). […]

[5] = tested on: bioluminescent S. aureus 49525; assay: Bioluminescence time-kill assay; type: cell-based, Staphylococcus aureus; conditions: antibiotics after 30 min incubation, triplicates, two independent experiments
Description: as §1, §3

A. baumannii 6043 = assay: microbe, parasite or virus in culture; type: cell-based, Acinetobacter baumannii; conditions: Acinetobacter baumannii, 6043, 24 h, read-out: Minimum Inhibitory Concentration (MIC)
Description: as §1, §2

A. baumannii 6838 = assay: microbe, parasite or virus in culture; type: cell-based, Acinetobacter baumannii; conditions: Acinetobacter baumannii, 6838, 24 h, read-out: Minimum Inhibitory Concentration (MIC)
Description: as §1, §2

A. baumannii ATCC 17978 = assay: microbe, parasite or virus in culture; type: cell-based, Acinetobacter baumannii; conditions: Acinetobacter baumannii, ATCC17978, 24 h, read-out: Minimum Inhibitory Concentration (MIC)
Description: as §1, §2

MRSA ATCC 33592 = assay: microbe, parasite or virus in culture; type: cell-based, Staphylococcus aureus; conditions: Staphylococcus aureus, 24 h, read-out: Minimum Inhibitory Concentration (MIC)
Description: as §1, §2

S. aureus 6061 = assay: microbe, parasite or virus in culture; type: cell-based, Staphylococcus aureus; conditions: Staphylococcus aureus, 6061, 24 h, read-out: Minimum Inhibitory Concentration (MIC)
Description: as §1, §2

MRSA 6381 = assay: microbe, parasite or virus in culture; type: cell-based, Staphylococcus aureus; conditions: Staphylococcus aureus, MRSA, 24 h, read-out: Minimum Inhibitory Concentration (MIC)
Description: as §1, §2

MRSA 6313 = assay: microbe, parasite or virus in culture; type: cell-based, Staphylococcus aureus; conditions: Staphylococcus aureus, MRSA, 24 h, read-out: Minimum Inhibitory Concentration (MIC)
Description: as §1, §2

S. aureus B-767 = assay: microbe, parasite or virus in culture; type: cell-based, Staphylococcus aureus; conditions: Staphylococcus aureus, B767, 24 h, read-out: Minimum Inhibitory Concentration (MIC)
Description: as §1, §2

K. pneumonia ATCC 10031 = assay: microbe, parasite or virus in culture; type: cell-based, Klebsiella pneumoniae; conditions: Klebsiella pneumoniae, ATCC10031, 24 h, read-out: Minimum Inhibitory Concentration (MIC)
Description: as §1, §2

K. pneumonia 6069 = assay: microbe, parasite or virus in culture; type: cell-based, Klebsiella pneumoniae; conditions: Klebsiella pneumoniae, 6069, 24 h, read-out: Minimum Inhibitory Concentration (MIC)
Description: as §1, §2

K. pneumonia 6066 = assay: microbe, parasite or virus in culture; type: cell-based, Klebsiella pneumoniae; conditions: Klebsiella pneumoniae, 6066, 24 h, read-out: Minimum Inhibitory Concentration (MIC)
Description: as §1, §2

P. aeruginosa ATCC 19660 = assay: microbe, parasite or virus in culture; type: cell-based, Pseudomonas aeruginosa; conditions: Pseudomonas aeruginosa, ATCC19660, 24 h, read-out: Minimum Inhibitory Concentration (MIC)
Description: as §1, §2

P. aeruginosa ATCC 27853 = assay: microbe, parasite or virus in culture; type: cell-based, Pseudomonas aeruginosa; conditions: Pseudomonas aeruginosa, ATCC27853, 24 h, read-out: Minimum Inhibitory Concentration (MIC)
Description: as §1, §2

P. aeruginosa 6186 = assay: microbe, parasite or virus in culture; type: cell-based, Pseudomonas aeruginosa; conditions: Pseudomonas aeruginosa, 6186, 24 h, read-out: Minimum Inhibitory Concentration (MIC)
Description: as §1, §2

S. epidermis ATCC 51625 = assay: microbe, parasite or virus in culture; type: cell-based, S. epidermidis; conditions: Staphylococcus epidermidis, ATCC51625, 24 h, read-out: Minimum Inhibitory Concentration (MIC)
Description: as §1, §2

E. cloacae 6053 = assay: microbe, parasite or virus in culture; type: cell-based; conditions: Enterobacter cloacae, 6053, 24 h, read-out: Minimum Inhibitory Concentration (MIC)
Description: as §1, §2

E. cloacae 6054 = assay: microbe, parasite or virus in culture; type: cell-based; conditions: Enterobacter cloacae, 6054, 24 h, read-out: Minimum Inhibitory Concentration (MIC)
Description: as §1, §2

SMILES: OC(Cn1cncn1)(Cn1cncn1)c1ccc(F)cc1F [fluconazole]
Killing fungi in preformed C. albicans biofilm and preventing biofilm formation [1]: markedly ineffective

EC90, biofilm CFU [2]: > 100 µg/mL | EC90 (concentration to reduce biofilm by 90%) [3]: ~ 100 μg/mL
SMILES: CCCCCCCCCC(=O)N[C@@H](Cc1c[nH]c2ccccc12)C(=O)N[C@H](CC(N)=O)C(=O)N[C@@H](CC(=O)O)C(=O)N[C@@H]1C(=O)NCC(=O)N[C@@H](CCCN)C(=O)N[C@@H](CC(=O)O)C(=O)N[C@H](C)C(=O)N[C@@H](CC(=O)O)C(=O)NCC(=O)N[C@H](CO)C(=O)N[C@@H]([C@H](C)CC(=O)O)C(=O)N[C@@H](CC(=O)c2ccccc2N)C(=O)O[C@@H]1C [daptomycin]

MIC (C. parapsilosis Y-1763): 1 µM and 1.08 µg/mL | MIC (C. parapsilosis Y-1761): 1 µM and 1.08 µg/mL
SMILES: C[C@@H]1[C@H](O)[C@@H](C)/C=C/C=C/C=C/C=C/C=C/C=C/C=C/[C@H](O[C@@H]2O[C@H](C)[C@@H](O)[C@H](N)[C@@H]2O)C[C@@H]2O[C@](O)(C[C@@H](O)C[C@@H](O)[C@H](O)CC[C@@H](O)C[C@@H](O)CC(=O)O[C@H]1C)C[C@H](O)[C@H]2C(=O)O [Amphotericin b, amphotericin B]

SMILES: CN[C@H](CC(C)C)C(=O)N[C@H]1C(=O)N[C@@H](CC(N)=O)C(=O)N[C@H]2C(=O)N[C@H]3C(=O)N[C@H](C(=O)N[C@H](C(=O)O)c4cc(O)cc(O)c4-c4cc3ccc4O)[C@H](O)c3ccc(c(Cl)c3)Oc3cc2cc(c3O[C@@H]2O[C@H](CO)[C@@H](O)[C@H](O)[C@H]2O[C@H]2C[C@](C)(N)[C@H](O)[C@H](C)O2)Oc2ccc(cc2Cl)[C@H]1O [Vancomycin, vancomycin]
Bactericidal activity in time-kill assay [4]: no trace of antibacterial activity | Bactericidal activity in time-kill assay [5]: no trace of antibacterial activity | MIC (A. baumannii 6043): > 88.3 µM | MIC (A. baumannii 6838): > 88.3 µM | MIC (A. baumannii ATCC 17978): > 88.3 µM | MIC (MRSA ATCC 33592): 1.4 µM (≈ 2.03 µg/mL) | MIC (S. aureus 6061): 2.1 µM (≈ 3.04 µg/mL) | MIC (MRSA 6381): 1.4 µM (≈ 2.03 µg/mL) | MIC (MRSA 6313): 1.4 µM (≈ 2.03 µg/mL) | MIC (S. aureus B-767): > 88.3 µM | MIC (K. pneumonia ATCC 10031): > 88.3 µM | MIC (K. pneumonia 6069): > 88.3 µM | MIC (K. pneumonia 6066): > 88.3 µM | MIC (P. aeruginosa ATCC 19660): > 88.3 µM | MIC (P. aeruginosa ATCC 27853): > 88.3 µM | MIC (P. aeruginosa 6186): > 88.3 µM | MIC (S. epidermis ATCC 51625): 2.1 µM (≈ 3.04 µg/mL) | MIC (E. cloacae 6053): > 88.3 µM | MIC (E. cloacae 6054): > 88.3 µM
